Measured values as given in ChEMBL document CHEMBL1208727, “Synthesis and pharmacological evaluation of aryl aminosulfonamide derivatives as potent 5-HT(6) receptor antagonists” (Bioorg Med Chem Lett, 2010).
Activity calls are given as the source filed them. No cut-off for these calls is given here.

Key:
[1] = molecular target: 5-hydroxytryptamine receptor 6 (Homo sapiens, UniProt P50406); assay: Binding affinity to human recombinant 5HT6 receptor expressed in CHO cells coexpressing pCRE-Luc assessed as inhibition of serotonin-induced increase in cAMP level by luciferase reporter gene assay; assay type: cell-based
Cytochrome P450 2D6 = Cytochrome P450 2D6 (Homo sapiens, UniProt P10635); assay: Inhibition of human CY2D6
Cytochrome P450 3A4 = Cytochrome P450 3A4 (Homo sapiens, UniProt P08684); assay: Inhibition of human CY3A4
[2] = Metabolic stability in human liver microsomes at […] after 30 mins; assay type: ADME, Microsome; conditions: read-out: Stability
[3] = Metabolic stability in Wistar rat liver microsomes at […] after 30 mins; assay type: ADME, Microsome; conditions: read-out: Stability
[4] = Cmax in Wistar rat at 10 mg/kg, po; assay type: ADME, organism-based; set-up: dose 10 mg/kg, route oral; conditions: in vivo
[5] = AUCt in Wistar rat at 10 mg/kg, po; assay type: ADME, organism-based; set-up: dose 10 mg/kg, route oral; conditions: plasma
[6] = Half life in Wistar rat at 10 mg/kg, po; assay type: ADME, organism-based; set-up: dose 10 mg/kg, route oral; conditions: in vivo
Rattus norvegicus [7] = assay: Apparent volume of distribution in Wistar rat at 10 mg/kg, po; assay type: ADME, organism-based; set-up: dose 10 mg/kg, route oral; conditions: in vivo
[8] = Clearance in Wistar rat at 10 mg/kg, po; assay type: ADME, organism-based; set-up: dose 10 mg/kg, route oral; conditions: in vivo
[9] = Oral bioavailability in Wistar rat at 10 mg/kg; assay type: ADME, organism-based; conditions: in vivo
[10] = Cmax in Wistar rat at 10 mg/kg, iv; assay type: ADME, organism-based; set-up: dose 10 mg/kg, route intravenous; conditions: in vivo
[11] = AUCt in Wistar rat at 10 mg/kg, iv; assay type: ADME, organism-based; set-up: dose 10 mg/kg, route intravenous; conditions: plasma
[12] = Half life in Wistar rat at 10 mg/kg, iv; assay type: ADME, organism-based; set-up: dose 10 mg/kg, route intravenous; conditions: in vivo
[13] = Apparent volume of distribution in Wistar rat at 10 mg/kg, iv; assay type: ADME, organism-based; set-up: dose 10 mg/kg, route intravenous; conditions: in vivo, read-out: Vz
[14] = Clearance in Wistar rat at 10 mg/kg, iv; assay type: ADME, organism-based; set-up: dose 10 mg/kg, route intravenous; conditions: in vivo
[15] = Ratio of drug level brain to plasma in Wistar rat; assay type: ADME
Rattus norvegicus [16] = assay: Cognitive enhancing effect in Wistar rat at 10 mg/kg, po by novel object recognition test; assay type: functional, organism-based; set-up: dose 10 mg/kg
Rattus norvegicus [17] = species on record: Rattus norvegicus; assay: Cognitive enhancing effect against scopolamine-induced acquisition memory deficit in Wistar rat by morris water maze test; assay type: functional, organism-based

5-hydroxytryptamine receptor 6, sequence (P50406 whole entry): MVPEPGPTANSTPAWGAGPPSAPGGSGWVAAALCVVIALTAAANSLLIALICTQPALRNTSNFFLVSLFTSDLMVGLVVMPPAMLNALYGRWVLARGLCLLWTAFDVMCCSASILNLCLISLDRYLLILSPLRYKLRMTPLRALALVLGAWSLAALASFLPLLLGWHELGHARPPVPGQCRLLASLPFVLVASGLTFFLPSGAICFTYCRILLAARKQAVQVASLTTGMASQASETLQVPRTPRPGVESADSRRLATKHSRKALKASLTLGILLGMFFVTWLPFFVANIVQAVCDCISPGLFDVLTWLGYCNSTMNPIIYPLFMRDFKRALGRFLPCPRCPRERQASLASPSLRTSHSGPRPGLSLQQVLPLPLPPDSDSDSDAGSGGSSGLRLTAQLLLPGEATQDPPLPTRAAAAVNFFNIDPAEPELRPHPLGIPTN
Cytochrome P450 3A4, sequence (P08684 whole entry): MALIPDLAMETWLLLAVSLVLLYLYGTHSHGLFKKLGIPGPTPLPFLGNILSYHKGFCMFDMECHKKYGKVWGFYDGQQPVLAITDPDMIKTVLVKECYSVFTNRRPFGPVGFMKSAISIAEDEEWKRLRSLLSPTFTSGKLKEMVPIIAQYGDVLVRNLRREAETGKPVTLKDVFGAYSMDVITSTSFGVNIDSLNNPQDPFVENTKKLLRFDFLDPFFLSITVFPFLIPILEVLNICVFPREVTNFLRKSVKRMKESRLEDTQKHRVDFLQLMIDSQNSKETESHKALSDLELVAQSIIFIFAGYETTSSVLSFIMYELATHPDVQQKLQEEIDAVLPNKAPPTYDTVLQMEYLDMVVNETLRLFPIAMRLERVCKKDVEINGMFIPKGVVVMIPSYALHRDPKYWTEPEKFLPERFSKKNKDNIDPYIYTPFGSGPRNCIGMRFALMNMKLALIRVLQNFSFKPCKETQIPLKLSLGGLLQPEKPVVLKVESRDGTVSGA
Cytochrome P450 2D6, sequence (P10635 whole entry): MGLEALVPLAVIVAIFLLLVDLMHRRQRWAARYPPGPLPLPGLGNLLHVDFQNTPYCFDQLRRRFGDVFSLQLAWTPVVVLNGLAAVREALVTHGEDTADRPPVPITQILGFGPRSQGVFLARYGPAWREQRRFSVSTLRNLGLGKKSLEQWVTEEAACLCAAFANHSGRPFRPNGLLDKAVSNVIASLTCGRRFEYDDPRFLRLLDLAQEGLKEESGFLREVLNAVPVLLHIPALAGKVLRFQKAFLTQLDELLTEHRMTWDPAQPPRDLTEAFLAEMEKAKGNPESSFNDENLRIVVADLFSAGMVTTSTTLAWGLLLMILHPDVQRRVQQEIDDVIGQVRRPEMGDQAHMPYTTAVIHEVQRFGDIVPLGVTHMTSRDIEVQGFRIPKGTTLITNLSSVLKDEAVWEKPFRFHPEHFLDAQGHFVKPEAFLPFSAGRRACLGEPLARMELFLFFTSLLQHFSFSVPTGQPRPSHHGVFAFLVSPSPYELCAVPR

| Compound | Kb [1] [nM] | further results |
| --- | --- | --- |
| COc1ccc(S(=O)(=O)Nc2ccccc2Cl)cc1NC1CCNCC1 | 0.48 |  |
| CCc1ccc(S(=O)(=O)Nc2cc(Cl)cc(Cl)c2OC)cc1NC1CCN(C)CC1 | 1.65 |  |
| CCc1ccc(S(=O)(=O)Nc2ccccc2Br)cc1NC1CCN(C)CC1 | 0.19 | IC50 (Cytochrome P450 2D6): > 45 µM; IC50 (Cytochrome P450 3A4): 9.62 µM; remaining at 0.5 h, […] [2]: 26%; remaining at 0.5 h, […] [3]: 99% |
| COc1ccc(S(=O)(=O)NCc2ccccc2)cc1N(C)C1CCN(C)CC1 | 3.9 |  |
| CN1CCC(Nc2cccc(S(=O)(=O)Nc3ccc(Br)cc3F)c2)CC1 | 12.2 |  |
| CCN(c1cc(S(=O)(=O)Nc2ccccc2)ccc1OC)C1CCN(C)CC1 | 18.6 |  |
| Cc1ccc(S(=O)(=O)Nc2ccccc2Br)cc1NC1CCN(C)CC1 | 1.31 |  |
| COc1ccc(S(=O)(=O)Nc2cc(C)ccc2OC)cc1NC1CCN(C)CC1 | 0.02 |  |
| COc1ccc(S(=O)(=O)Nc2ccccc2)cc1NC1CCN(C)CC1 | 1.23 |  |
| COc1ccc(S(=O)(=O)Nc2ccccc2Cl)cc1NC1CCN(C)CC1 | 0.584 |  |
| COc1ccc(S(=O)(=O)Nc2cc(Cl)cc(Cl)c2OC)cc1NC1CCN(C)CC1 | 0.02 | Cmax [4]: 536 ng/mL; AUC(0-t) [5]: 941 ng·h/mL; half-life [6]: 103 min; Vz (Rattus norvegicus [7]): 34332 mL/kg; CL/F [8]: 207 mL/min/kg; bioavailability [9]: 38%; Cmax [10]: 1920 ng/mL; AUC(0-t) [11]: 2530 ng·h/mL; half-life [12]: 178 min; Vd [13]: 16.9 L/kg; clearance [14]: 65.5 mL/min/kg; IC50 (Cytochrome P450 2D6): 41.7 µM; IC50 (Cytochrome P450 3A4): 8.44 µM; remaining at 0.5 h, […] [2]: 21%; remaining at 0.5 h, […] [3]: 77%; Kp [15]: 0.08; Activity (Rattus norvegicus [16]): Active; Activity (Rattus norvegicus [17]): Active |
| COc1ccc(S(=O)(=O)NCc2ccccc2)cc1NC1CCNCC1 | 4.26 |  |
| COc1ccc(S(=O)(=O)NCCc2ccccc2Br)cc1NC1CCN(C)CC1 | 38 |  |
| COc1ccc(S(=O)(=O)NCc2ccccc2)cc1N(C)C1CCNCC1 | 2.65 |  |
| COc1ccc(S(=O)(=O)Nc2ccccc2Br)cc1N(C)C1CCNCC1 | 0.2 |  |
| Cc1ccc(NS(=O)(=O)c2cccc(NC3CCN(C)CC3)c2)c(C)c1 | > 10000 |  |
| COc1ccc(NS(=O)(=O)c2ccccc2OC(F)F)cc1N1CCNCC1 |  | Ki [1]: < 10 nM |
| COc1ccc(S(=O)(=O)NCCc2ccccc2Cl)cc1NC1CCN(C)CC1 | 26 |  |
| COc1ccc(S(=O)(=O)Nc2ccccc2Cl)cc1N(C)C1CCNCC1 | 0.86 |  |
| COc1ccc(S(=O)(=O)NCc2ccccc2)cc1NC1CCN(C)CC1 | 3.36 |  |
| CN1CCC(Nc2cccc(S(=O)(=O)Nc3c(F)cc(F)cc3Br)c2)CC1 | > 10000 |  |
| COc1ccc(S(=O)(=O)Nc2ccccc2Br)cc1NC1CCN(C)CC1 | 0.296 |  |
| COc1ccc(NS(=O)(=O)c2cccc(NC3CCN(C)CC3)c2)c(OC)c1 | 10 |  |
| CCc1ccc(S(=O)(=O)Nc2ccccc2Br)cc1NC1CCNCC1 | 0.1 |  |
| COc1ccc(S(=O)(=O)Nc2ccccc2Br)cc1NC1CCNCC1 | 0.6 |  |
| COc1ccc(OC)c(NS(=O)(=O)c2cccc(NC3CCN(C)CC3)c2)c1 | 16 |  |
